Patent US20250122160A1, “PROTEIN TYROSINE PHOSPHATASE INHIBITORS AND METHODS OF USE THEREOF” (Calico Life Sciences LLC, priority 0001, published 2025)

Assays:
[1] = target: T1, His tagged PTPN2 (TC45) protein (Homo sapiens, UniProt P17706); experiment: Mobility shift assay (MSA) to determine potency of PTPN2 inhibitors; assay type: biochemical; settings: 0.5 nM enzyme, 2 μM substrate
T1 construct: made in house
T1 sequence (P17706 with tags, fused parts or gaps isoform P17706-2): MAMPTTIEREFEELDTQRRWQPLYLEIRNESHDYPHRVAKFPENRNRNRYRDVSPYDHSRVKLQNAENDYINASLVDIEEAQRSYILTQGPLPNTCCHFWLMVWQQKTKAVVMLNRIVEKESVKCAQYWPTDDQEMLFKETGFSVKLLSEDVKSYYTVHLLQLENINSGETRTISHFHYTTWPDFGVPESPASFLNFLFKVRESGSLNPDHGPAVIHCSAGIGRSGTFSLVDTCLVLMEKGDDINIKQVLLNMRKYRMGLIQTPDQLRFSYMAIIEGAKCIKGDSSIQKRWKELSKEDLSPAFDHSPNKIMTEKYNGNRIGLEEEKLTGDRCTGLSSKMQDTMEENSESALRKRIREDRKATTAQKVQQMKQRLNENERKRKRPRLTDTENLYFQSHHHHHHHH
Protocol: Compound activity was determined using in house His tagged PTPN2 (TC45) protein (SEQ ID NO: 1) in an in vitro enzymatic reaction. The enzymatic assay used to determine activity was a mobility shift assay using a LabChip EZ Reader by Caliper Life Sciences. The enzymatic reaction was carried out in assay buffer (50 mM HEPES pH 7.5, 1 mM EGTA, 10 mM EDTA, 0.01% Tween® 20, and 2 mM DTT). The compounds were dispensed on a white 384 well ProxiPlate™ (PerkinElmer Catalog #6008289) plate using the Labcyte Echo at varying concentrations (12 point, 1:3 dilution). The enzyme (at 0.5 nM) was incubated with compound for 10 minutes at room temperature. Then the substrate (phosphorylated insulin receptor probe sequence: ((OG488)-(NH—CH2—CH2—O—CH2—CH2—O—CH2—CO)-T-R-D-I-(PY)-E-T-D-Y—Y—R—K—K—NH2) (SEQ ID NO: 2) was added at 2 μM to the plates and incubated for another 10 minutes at room temperature. Finally, a quench solution (water and 4-bromo-3-(2-oxo-2-propoxyethoxy)-5-(3-{[1-(phenylmethanesulfonyl)piperidin-4-yl]amino}phenyl)thiophene-2-carboxylic acid) was added to the plates, which were then run on the EZ Reader (excitation 488 nm, emission 530 nm) to measure % conversion (the amount of phosphorylated substrate which was de-phosphorylated by PTPN2). […] The % inhibition was then used to calculate the IC50 values.

[2] = target: T2, His tagged full-length PTPN1 protein (Homo sapiens, UniProt P18031); experiment: Mobility shift assay (MSA) to determine potency of PTPN1 inhibitors; assay type: biochemical; settings: 0.5 nM enzyme, 2 μM substrate
T2 construct: made in house
T2 sequence (P18031 with tags, fused parts or gaps): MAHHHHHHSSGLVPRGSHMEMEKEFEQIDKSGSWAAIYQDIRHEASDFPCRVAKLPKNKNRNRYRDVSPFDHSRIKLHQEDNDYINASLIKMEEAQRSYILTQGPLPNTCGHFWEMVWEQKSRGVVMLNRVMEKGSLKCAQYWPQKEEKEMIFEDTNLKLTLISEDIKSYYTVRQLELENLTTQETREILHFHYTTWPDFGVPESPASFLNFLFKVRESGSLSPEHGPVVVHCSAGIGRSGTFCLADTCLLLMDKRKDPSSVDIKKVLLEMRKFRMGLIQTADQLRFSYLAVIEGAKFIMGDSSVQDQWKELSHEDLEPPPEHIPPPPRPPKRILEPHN
Protocol: Compound activity was determined using in house His tagged full-length PTPN1 protein (SEQ ID NO: 3) in an in vitro enzymatic reaction. The enzymatic assay used to determine activity is a mobility shift assay using a LabChip EZ Reader by Caliper Life Sciences. The enzymatic reaction was carried out in assay buffer (50 mM HEPES pH 7.5, 1 mM EGTA, 10 mM EDTA. 0.01% Tween® 20, and 2 mM DTT). The compounds were dispensed on a white 384 well ProxiPlate™ (PerkinElmer Cat #6008289) plate using a Labcyte Echo® liquid handler at varying concentrations (12 point, 1:3 dilution). The enzyme (at 0.5 nM) was incubated with compound for 10 minutes at room temperature. Then the substrate (phosphorylated insulin receptor probe sequence: ((OG488)-(NH—CH2—CH2—O—CH2—CH2—O—CH2—CO)-T-R-D-I-(PY)-E-T-D-Y—Y—R—K—K—NH2) (SEQ ID NO: 2) was added at 2 μM to the plates and incubated for another 10 minutes at room temperature. Finally, a quench solution (water and 4-bromo-3-(2-oxo-2-propoxyethoxy)-5-(3-{[1-(phenylmethanesulfonyl)piperidin-4-yl]amino}phenyl)thiophene-2-carboxylic acid) was added to the plates, which were then run on the EZ Reader (excitation 488 nm, emission 530 nm) to measure % conversion (the amount of phosphorylated substrate which was de-phosphorylated by PTPN1). […] The % inhibition was then used to calculate the IC50 values.

SMILES | IC50 [1] | IC50 [2]
CC(C)CCNCC1CCc2cc(O)c(N3CC(=O)NS3(=O)=O)c(F)c2C1 (centres unmarked) [Compound 390, 5-(1-fluoro-3-hydroxy-7-{[(3-methylbutyl)amino]methyl}-5,6,7,8-tetrahydronaphthalen-2-yl)-1λ^6,2,5-thiadiazolidine-1,1,3-trione] | 10 to 100 nM | 10 to 100 nM
O=C1CN(c2c(O)cc3c(c2F)CN(CC[C@H]2C[C@@H](OC(F)(F)F)C2)CC3)S(=O)(=O)N1 [Compound 231] | 10 to 100 nM | 1 to 10 nM
NC[C@@H]1CCc2cc(O)c(N3CC(=O)NS3(=O)=O)c(F)c2C1 [Compound 405, 5-[(7R)-7-(aminomethyl)-1-fluoro-3-hydroxy-5,6,7,8-tetrahydronaphthalen-2-yl]-1λ^6,2,5-thiadiazolidine-1,1,3-trione] | 10 to 100 nM | 10 to 100 nM
CN(C)CCNC(=O)N1CCc2cc(O)c(N3CC(=O)NS3(=O)=O)c(F)c2C1 [Compound 280] | > 100 nM | > 100 nM
O=C1CN(c2c(O)cc3c(c2F)CN(CC2CC4(CC4)C2)CC3)S(=O)(=O)N1 [Compound 168] | 10 to 100 nM | 10 to 100 nM
O=C1CN(c2c(O)cc3c(c2F)C[C@H](NCCC2CCOCC2)CC3)S(=O)(=O)N1 [Compound 365, 5-[(7R)-1-fluoro-3-hydroxy-7-{[2-(oxan-4-yl)ethyl]amino}-5,6,7,8-tetrahydronaphthalen-2-yl]-1λ^6,2,5-thiadiazolidine-1,1,3-trione] | 1 to 10 nM | 10 to 100 nM
COCCCCN[C@@H]1CCc2cc(O)c(N3CC(=O)NS3(=O)=O)c(F)c2C1 [Compound 360, 5-{(7R)-1-fluoro-3-hydroxy-7-[(4-methoxybutyl)amino]-5,6,7,8-tetrahydronaphthalen-2-yl}-1λ^6,2,5-thiadiazolidine-1,1,3-trione] | 1 to 10 nM | 10 to 100 nM
Cc1nn(C(C)(C)C)c(C)c1CCN1CCc2cc(O)c(N3CC(=O)NS3(=O)=O)c(F)c2C1 [Compound 266] | 1 to 10 nM | 1 to 10 nM
Cc1n[nH]c(C)c1CCN1CCc2cc(O)c(N3CC(=O)NS3(=O)=O)c(F)c2C1 [Compound 194] | 1 to 10 nM | 1 to 10 nM
COCCN1CCc2cc(O)c(N3CC(=O)NS3(=O)=O)c(F)c2C1 [Compound 216] | > 100 nM | > 100 nM
CCn1nc(C)c(CCN2CCc3cc(O)c(N4CC(=O)NS4(=O)=O)c(F)c3C2)c1C [Compound 276] | < 1 nM | 1 to 10 nM
O=C1CN(c2c(O)cc3c(c2F)CN(CCCc2cccnc2)CC3)S(=O)(=O)N1 [Compound 207] | 10 to 100 nM | 10 to 100 nM
CC(C)CNS(=O)(=O)N1CCc2cc(O)c(N3CC(=O)NS3(=O)=O)c(F)c2C1 [Compound 328, 8-fluoro-6-hydroxy-N-(2-methylpropyl)-7-(1,1,4-trioxo-1λ^6,2,5-thiadiazolidin-2-yl)-3,4-dihydroisoquinoline-2(1H)-sulfonamide] | 10 to 100 nM | 10 to 100 nM
O=C1CN(c2c(O)cc3c(c2F)C[C@H](NCC2(C(F)F)CC2)CC3)S(=O)(=O)N1 [Compound 355, 5-[(7R)-7-({[1-(difluoromethyl)cyclopropyl]methyl}amino)-1-fluoro-3-hydroxy-5,6,7,8-tetrahydronaphthalen-2-yl]-1λ^6,2,5-thiadiazolidine-1,1,3-trione] | 1 to 10 nM | 10 to 100 nM
CC(C)CCN[C@H]1Cc2c(cc(O)c(N3CC(=O)NS3(=O)=O)c2F)C[C@@H]1O [Compound 411, 5-{(6S,7S)-1-fluoro-3,6-dihydroxy-7-[(3-methylbutyl)amino]-5,6,7,8-tetrahydronaphthalen-2-yl}-1λ^6,2,5-thiadiazolidine-1,1,3-trione] | < 1 nM | 1 to 10 nM
O=C1CN(c2c(O)cc3c(c2F)CN(CCC2(C(F)(F)F)CC2)CC3)S(=O)(=O)N1 [Compound 243] | 1 to 10 nM | 1 to 10 nM
O=C1CN(c2c(O)cc3c(c2F)C[C@H](NCc2ccc(CO)o2)CC3)S(=O)(=O)N1 [Compound 359, 5-[(7R)-1-fluoro-3-hydroxy-7-({[5-(hydroxymethyl)furan-2-yl]methyl}amino)-5,6,7,8-tetrahydronaphthalen-2-yl]-1λ^6,2,5-thiadiazolidine-1,1,3-trione] | 10 to 100 nM | 10 to 100 nM
O=C1CN(c2c(O)cc3c(c2F)C[C@H](NCc2cccnc2)CC3)S(=O)(=O)N1 [Compound 347, 5-[(7R)-1-fluoro-3-hydroxy-7-{[(pyridin-3-yl)methyl]amino}-5,6,7,8-tetrahydronaphthalen-2-yl]-1λ^6,2,5-thiadiazolidine-1,1,3-trione] | 10 to 100 nM | 10 to 100 nM
O=C1CN(c2c(O)cc3c(c2F)CC(CNCCCC2CC2)CC3)S(=O)(=O)N1 (centres unmarked) [Compound 394, 5-(7-{[(3-cyclopropylpropyl)amino]methyl}-1-fluoro-3-hydroxy-5,6,7,8-tetrahydronaphthalen-2-yl)-1λ^6,2,5-thiadiazolidine-1,1,3-trione] | 10 to 100 nM | 10 to 100 nM
NCC1(CCN[C@@H]2CCc3cc(O)c(N4CC(=O)NS4(=O)=O)c(F)c3C2)CCC1 [Compound 376, 5-[(7R)-7-({2-[1-(aminomethyl)cyclobutyl]ethyl}amino)-1-fluoro-3-hydroxy-5,6,7,8-tetrahydronaphthalen-2-yl]-1λ^6,2,5-thiadiazolidine-1,1,3-trione] | < 1 nM | 1 to 10 nM
O=C1CN(c2c(O)cc3c(c2F)CC(CNCC2CCC2)CC3)S(=O)(=O)N1 (centres unmarked) [Compound 400, 5-(7-{[(cyclobutylmethyl)amino]methyl}-1-fluoro-3-hydroxy-5,6,7,8-tetrahydronaphthalen-2-yl)-1λ^6,2,5-thiadiazolidine-1,1,3-trione] | 10 to 100 nM | 10 to 100 nM
CC1C[C@@H](NC(=O)OC(C)(C)C)Cc2c1cc(O)c(N1CC(=O)NS1(=O)=O)c2F (mixture of isomers) [Compound 392, tert-butyl [(2R)-8-fluoro-6-hydroxy-4-methyl-7-(1,1,4-trioxo-1λ^6,2,5-thiadiazolidin-2-yl)-1,2,3,4-tetrahydronaphthalen-2-yl]carbamate] | 10 to 100 nM | 10 to 100 nM
CC(C)CNCC1CCc2cc(O)c(N3CC(=O)NS3(=O)=O)c(F)c2C1 (centres unmarked) [Compound 333, 5-(1-fluoro-3-hydroxy-7-{[(2-methylpropyl)amino]methyl}-5,6,7,8-tetrahydronaphthalen-2-yl)-1λ^6,2,5-thiadiazolidine-1,1,3-trione] | 10 to 100 nM | 10 to 100 nM
NCCC1(CCN[C@@H]2CCc3cc(O)c(N4CC(=O)NS4(=O)=O)c(F)c3C2)CCC1 [Compound 377, 5-[(7R)-7-({2-[1-(2-aminoethyl)cyclobutyl]ethyl}amino)-1-fluoro-3-hydroxy-5,6,7,8-tetrahydronaphthalen-2-yl]-1λ^6,2,5-thiadiazolidine-1,1,3-trione] | < 1 nM | 1 to 10 nM
COC(CN1CCc2cc(O)c(N3CC(=O)NS3(=O)=O)c(F)c2C1)C1CCCC1 (centres unmarked) [Compound 249] | 10 to 100 nM | 10 to 100 nM
